Assay results: patent US20160296586A1, “AGENT FOR PREVENTING OR AM[…] ENDOTHELIAL MALFUNCTION” (KYOWA HAKKO BIO CO., LTD., priority 2012, published 2016)

Tested on: normal human umbilical vein endothelial cell (HUVEC)
Assay: NO production: nitrite (NO2) in HUVEC culture supernatant by HPLC
Type: cell-based
Details: 24-hour culture, vs control (PBS), FIG. 1
Experimental: A normal human umbilical vein endothelial cell (HUVEC) line available from Clonetics (SanDiego, Calif., USA) was used with EGM-2 Bullet Kit medium containing 2% FBS (Takara Bio). The cells were cultured in at 37° C., in 5% CO2 incubator, and used for experiment after 4 to 6 passages. Citrulline and reduced glutathione were obtained from Kyowa Hakko Bio.
A cell suspension (0.45 mL) with the adjusted initial cell combination of 5×10^5 cells/mL was inoculated in a 24-well plate (IWAKI). After 40-hour culture, the media were replaced with those containing citrulline (final concentration 0.3 mM; citrulline group), reduced glutathione (final concentration 1 mM: high-dose glutathione group), and a citrulline and reduced glutathione mixture (citrulline final concentration 0.3 mM; glutathione final concentration 0.3 mM; citrulline+low -dose glutathione group). Media with the sole addition of solvent (PBS) were used as a control group. After 24-hour culture, the cell culture (100 μL) was centrifuged at 12,000 rpm for 10 minutes, and the concentration of nitrite (NO2), which is the stable NO metabolite, in culture supernatant was quantified by HPLC (ENO-20, EICOM).

Row | SMILES | effect on NO production (nitrite NO2 concentration in medium) (citrulline final concentration 0.3 mM) | effect on NO production (nitrite NO2 concentration in medium) (reduced glutathione final concentration 1 mM (high-dose))
1 | NC(=O)NCCC[C@H](N)C(=O)O [citrulline] | no effect on NO production | –
2 | N[C@@H](CCC(=O)N[C@@H](CS)C(=O)NCC(=O)O)C(=O)O [glutathione, reduced glutathione] | – | no effect on NO production
